Like-named read-outs stand apart in the source and are kept apart here. Numbered stars: 1 amine (or outer) side, 2 acyl side, 3 side chain; on linkers, the order of the positions; unused ones are H or OH. Bridge positions count the residues as written; N and C are the ends. Square brackets hold non-standard residues; d marks the D form. Peptide text beside a SMILES is read from it. Adda = CO[C@@H](Cc1ccccc1)[C@@H](C)/C=C(C)/C=C/[C@H](N[*:1])[C@H](C)C(=O)[*:2]; dAsp(3S-Me) = C[C@H](C(=O)[*:3])[C@@H](N[*:1])C(=O)[*:2]; d(γGlu) = O=C(O)[C@@H](CCC(=O)[*:2])N[*:1]; NMeDha = C=C(NC)C(=O)O
How the values were obtained:
[1] = tested on: OATP1B3-expressing RKO cells
[2] = tested on: OATP1B1-expressing RKO cells; details: read-out: IC50 RKO B1
[3] = tested on: OATP1B1- and OATP1B3-expressing HeLa or RKO cell lines
[4] = tested on: OATP1B1-expressing HeLa cells; details: read-out: IC50 HeLa B1
[5] = tested on: OATP1B3-expressing HeLa cells; details: for IC50: read-out: IC50 HeLa B3
HeLa Control cells [6] = details: read-out: IC50 HeLa Control
OATP1B1 = test: in vitro; details: human
[7] = tested on: OATP1B1-expressing HeLa cells; details: cited from earlier work
HeLa Control cells [8] = details: cited from earlier work
[9] = tested on: OATP1B3-expressing HeLa cells; details: cited from earlier work

Row | Compound | Ratio IC50 B1/B3 RKO [1] | IC50 ([1]; read-out: IC50 RKO B3) | IC50 [2] | IC50 (RKO control cells; read-out: IC50 RKO control) | IC50 [4] | Ratio IC50 B1/B3 HeLa [5] | IC50 [5] | IC50 (HeLa Control cells [6]) | other results
1 | C=C1C(=O)N[C@H](C)C(=O)N[C@@H](Cc2ccc(O)cc2)C(=O)N[C@@H](C(=O)O)CC(=O)N[C@@H](CCCNC(=N)N)C(=O)N[C@@H](/C=C/C(C)=C/[C@H](C)[C@H](Cc2ccccc2)OC)[C@H](C)C(=O)N[C@@H](C(=O)O)CCC(=O)N1C [compound 14, [D-Asp^3]MC-YR] | 3.1 | 48 nM | 149 nM | > 1000 nM |  |  |  |  | 
2 | C/C=C1/NC(=O)CC[C@H](C(=O)O)NC(=O)[C@@H](C)[C@H](/C=C/C(C)=C/[C@H](C)[C@H](Cc2ccccc2)OC)NC(=O)[C@H](CCCNC(=N)N)NC(=O)C[C@H](C(=O)O)NC(=O)[C@H](Cc2ccc(O)cc2)NC(=O)[C@@H](C)NC1=O [compound 15, [D-Asp^3,(E)-Dhb^7]MC-YR] | 4.0 | 27.1 nM | 108 nM | > 1000 nM |  |  |  |  | transporter selectivity (in words) [3]: most OATP1B3 selective
3 | C=C1C(=O)N[C@H](C)C(=O)N[C@@H](CCCNC(=N)N)C(=O)N[C@@H](C(=O)O)[C@H](C)C(=O)N[C@@H](Cc2ccc(O)cc2)C(=O)N[C@@H](/C=C/C(C)=C/[C@H](C)[C@H](Cc2ccccc2)OC)[C@H](C)C(=O)N[C@@H](C(=O)O)CCC(=O)N1C [compound 16, MC-RY] (Y[Adda][d(γGlu)][NMeDha][dA]R[dAsp(3S-Me)]-OH; lactam N-7) |  |  |  |  | 77 nM | 30.8 | 2.5 nM | > 1000 nM | transporter selectivity (in words) [3]: most OATP1B3 selective
4 | C=C1C(=O)N[C@H](C)C(=O)N[C@@H](Cc2ccc(O)cc2)C(=O)N[C@@H](C(=O)O)[C@H](C)C(=O)N[C@@H](Cc2ccc(O)cc2)C(=O)N[C@@H](/C=C/C(C)=C/[C@H](C)[C@H](Cc2ccccc2)OC)[C@H](C)C(=O)N[C@@H](C(=O)O)CCC(=O)N1C [compound 17, MC-YY] (Y[Adda][d(γGlu)][NMeDha][dA]Y[dAsp(3S-Me)]-OH; lactam N-7) |  |  |  |  | 1.5 nM | 1.9 | 0.8 nM | 259 nM | IC50 values (potency grouping) [3]: sub-nanomolar
5 | C/C=C1/NC(=O)CC[C@H](C(=O)O)NC(=O)[C@@H](C)[C@H](/C=C/C(C)=C/[C@H](C)[C@H](Cc2ccccc2)OC)NC(=O)[C@H](Cc2c[nH]c3ccccc23)NC(=O)C[C@H](C(=O)O)NC(=O)[C@H](CCc2ccc(O)cc2)NC(=O)[C@@H](C)NC1=O [compound 20, [D-Asp^3,(E)-Dhb^7]MC-HtyW] | 1.9 |  |  |  |  |  |  |  | IC50 ([1]; human): 2.57 nM; IC50 (OATP1B1): 4.9 nM; IC50 (RKO control cells; 3 h): > 100 nM
6 | CO[C@@H](Cc1ccccc1)[C@@H](C)/C=C(C)/C=C/[C@@H]1NC(=O)[C@H](CCCCNC(=N)N)NC(=O)C[C@H](C(=O)O)NC(=O)[C@H](Cc2ccc(O)cc2)NC(=O)[C@@H](C)NC(=O)[C@H](CO)N(C)C(=O)CC[C@H](C(=O)O)NC(=O)[C@H]1C [compound 21, [D-Asp^3,MSer^7]MC-YHar] | 1.6 |  |  |  |  |  |  |  | IC50 ([1]; human): 385 nM; IC50 (OATP1B1): 625 nM; IC50 (RKO control cells; 3 h): > 1000 nM; IC50 ([3]; human): > 100 nM
7 | C=C1C(=O)N[C@H](C)C(=O)N[C@@H](Cc2ccc(O)cc2)C(=O)N[C@@H](C(=O)O)[C@H](C)C(=O)N[C@@H](CCCNC(=N)N)C(=O)N[C@@H](/C=C/C(C)=C/[C@H](C)[C@H](Cc2ccccc2)OC)[C@H](C)C(=O)N[C@@H](C(=O)OC)CCC(=O)N1C [compound 22, [D-Glu(OMe)^6]MC-YR] | 2.6 | 227 nM | 595 nM | > 1000 nM |  |  |  |  | IC50 ([3]; read-out: IC50 values (potency grouping)): > 100 nM
8 | CC=C1C(=O)N[C@@H](C(=O)O)[C@H](C)C(=O)N[C@@H](CCCNC(=N)N)C(=O)N[C@@H](/C=C/C(C)=C/[C@H](C)[C@H](Cc2ccccc2)OC)[C@H](C)C(=O)N[C@@H](C(=O)O)CCC(=O)N1C [compound 23, Nodularin] | < 0.1 | > 100 nM | 10 nM | > 100 nM | 8.4 nM | < 0.1 | > 100 nM | > 100 nM | 
9 | C=C1[C@@H](O)[C@@H]2O[C@]3(CC[C@H](/C=C/[C@@H](C)[C@@H]4CC(C)=C[C@@]5(O[C@H](C[C@@](C)(O)C(=O)O)CC[C@H]5O)O4)O3)CC[C@H]2O[C@@H]1[C@@H](O)C[C@H](C)[C@H]1O[C@@]2(CCCCO2)CC[C@H]1C [compound 24, okadaic acid] |  |  |  |  |  |  |  |  | IC50 [7]: 2.2 nM; IC50 (HeLa Control cells [8]): 7.8 nM; IC50 [9]: 3 nM; Ratio IC50 B1/B3 HeLa [9]: 0.7

— article PMC3948918 (PLoS ONE, 2014)
